According to US10774049B2, “PU.1 inhibitors” (Albert Einstein College of Medicine, priority 2016, dated 2020):
Structures can show the parent of a compound that is named as a salt.

Legend:
PU.1 URE−/− AML cells [1] = experiment: Colony forming capacity and serial replating of PU.1 URE−/− AML cells; format: cell-based, murine
Method: FIG. 2A-2F. PU.1 inhibition decreases cell growth and increases apoptosis of PU.1^1″ leukemic cells. (A) Chemical structures of heterocyclic diamidines DB1976, DB2115 and DB2313 used in this study. (B) Relative cell viability of URE−/− cells and BAF3 cells after treatment with increasing concentrations of vehicle or small molecules. Cell viability was assessed after 48 h. Data represent means of technical triplicate from one representative experiment; fold change compared to Vehicle is shown. (C) Cell proliferation assay of URE−/− after treatment with DB1976 (n=5), DB2115 (n=3), DB2313 (n=3), of MOLM13 cells (n=3), and THP1 cells (n=3). Cell counting was performed every 24 h during 4 days. Data represent means±SD of technical triplicate from one representative experiment. Forward strand: SEQ ID NO:3, and Reverse strand: SEQ ID NO:4; derived from the λB motif from the murine Ig lambda 2-4 enhancer, a known native PU.1-dependent gene and specific binding site for PU.1. (D) Clonogenic capacities of URE−/− cells after treatment with DB1976 (n=5), DB2115 (n=3) and DB2313 (n=4) in the first plating, and after serial replatings (n=3). Data represent means±SD of technical triplicate from one representative experiment. (E) Apoptotic cells (Annexin-V+Dapi−) fraction in URE−/− cells after 48 h of treatment with DB1976 (n=6), DB2115 (n=6) and DB2313 (n=3). […]

PU.1 URE−/− AML cells [2] = experiment: Gene expression (transcriptome) analysis of PU.1 URE−/− AML cells; format: cell-based, murine; details: by at least 1.2-fold
Method: FIG. 3A-3G. Novel inhibitors show on-target PU.1 inhibitory activity. (A) Quantitative RT-PCR analysis of Csf1r, Junb, Sfpi1, E2f1 expression after 72 h (n=6) and, for Csf1r, after 1 h (n=3), 4 h (n=7), 8 h (n=3) and 24 h (n=3) of treatment with the small molecules in URE−/− cells, expression is normalized to GAPDH expression. Data represent means±SD of technical triplicate from one representative experiment; fold change compared to Vehicle is shown. (B) Chromatin immunoprecipitation assay showing PU.1 occupancy on E2f1, Junb, Csf1r promoters after treatment in Umsh cell line (n=5). 10·10^6 cells were collected for each condition after 8 h treatment with a double dose of the small molecules (50 uM for DB1976, 1.4 uM for DB2115 and 660 nM for DB2313) or Vehicle; and processed for ChIP using PU.1 monoclonal antibody. Myogenin was used as a negative control, not regulated by PU.1. Data represent means±SD of technical triplicate from one representative experiment. (C) Cell viability after PU.1 rescue in MOLM13 cells. MOLM13 were transduced with a lentiviral construct expressing either PU.1-GFP (PU.1, black bar) or GFP as a control (empty, white bar), sorted on GFP and plated with DB1976 (n=7), DB2115 (n=8), DB2313 (n=6) or Vehicle. Cell count was performed after 4 days. Data represent means±SD of technical triplicate from one representative experiment; fold change compared to Vehicle is shown. (D-G) Transcriptome analysis of URE−/− cells after 24 h of treatment with DB2313 versus vehicle (n=3). Differentially expressed genes were determined with a fold change at 1.2 and a P value <0.1. (D) Enrichment in genes directly regulated by PU.1 or in genes regulated by the other ETS transcription factors Ets1, Gabpa, Spi-B, Fli-1, using Ingenuity Knowledge Base. The red dotted line represents the significance threshold (−log (P value)>1.3). […] Deregulated gens in PUER cells were analyzed with a FC at 1.5 and P-value <0.05. […] P-value was calculated using the hypergeometric test. […]

PU.1 URE−/− AML cells [3] = experiment: Transplantation of in vitro treated PU.1 URE−/− AML cells into sublethally irradiated mice; format: in vivo, mouse
Method: FIG. 6A-6H. Treatment with PU1 inhibitors increases survival and decreases tumor burden in vivo. (A) Experimental scheme. URE−/− cells were treated in vitro with DB2313 or Vehicle and counted after 2 days of culture. 200·10^3 viable cells per mouse were injected retroorbitally into sublethally irradiated mice. Mice were sacrificed at 6 weeks or used for survival analyses. (B) Kaplan-Meier survival analysis of transplanted mice (x animals for vehicle group, xx for DB2313 group, from 2 independent experiments, p=). (C,D) Spleen and liver weight 6 weeks after transplant (8 animals for vehicle group, 7 for DB2313 group). Data represent means±SD, each mouse is represented by an individual dot. (E) Chimerism of URE−/− cells in the bone marrow 6 weeks after transplant (14 animals per group from 2 independent experiments).
To assess the effect of PU.1 inhibitors on AML in vivo, we treated PU.1 URE^−/− AML cells for 2 days in vitro and injected 2×10^5 viable cells in sublethally irradiated recipient mice (FIG. 6A).

CC(C)NC(=N)c1ccc2nc(-c3ccc(OCc4cccc(COc5ccc(-c6nc7ccc(C(=N)NC(C)C)cc7[nH]6)cc5)c4F)cc3)[nH]c2c1 [DB2313, 3-Bis{4[4(5)-N-isopropylamidinobenzimidazolyl]phenoxymethyl]}-2-fluorobenzene tetrahydrochloride]
clonogenic capacity in serial replating, 4th and higher rounds of plating (PU.1 URE−/− AML cells [1]): complete disruption | clonogenicity in serial replating, second and third rounds of plating (PU.1 URE−/− AML cells [1]): highly significant decrease | number of downregulated probe sets (PU.1 URE−/− AML cells [2]): 781 probe sets | number of upregulated probe sets (PU.1 URE−/− AML cells [2]): 867 probe sets | number of dysregulated transcripts (out of 34,472 total) (PU.1 URE−/− AML cells [2]; 24 h): 1648 transcripts | mean chimerism, AML cell engraftment in the bone marrow (PU.1 URE−/− AML cells [3]; 6 weeks after transplant, vehicle 55%): 33% | splenic mean weight (PU.1 URE−/− AML cells [3]; 6 weeks post transplantation, vehicle 410 mg): 243 mg | liver mean weight (PU.1 URE−/− AML cells [3]; 6 weeks post transplantation, vehicle 2,347 mg): 1,548 mg | median latency (survival of recipient mice) (PU.1 URE−/− AML cells [3]; cells treated 2 days in vitro, vehicle 44 days): 68 days | histology: blast infiltration and disruption of splenic architecture (PU.1 URE−/− AML cells [3]; in comparison to vehicle group): significantly less pronounced effects | infiltration of the liver by leukemic blasts (PU.1 URE−/− AML cells [3]; in comparison to vehicle group): substantially reduced
